Measurements: patent US20220305093A1, “NK-LYSIN PEPTIDE COMPOSITIONS AND METHODS FOR THEIR USE AS ANTIMICROBIAL/ANTIVIRAL AGENTS” (priority 2021, published 2022)
In brackets after ≈: the same amount, converted by molar mass.

Tests used:
[1] = system: Escherichia coli (ATCC 11775); test: microbe, parasite or virus in culture; details: Escherichia coli, ATCC11775
Experimental: (§1) The minimum inhibitory concentration (MIC) is defined as the lowest concentration of an antimicrobial ingredient or agent that is bacteriostatic (prevents the visible growth of bacteria).
(§2) Mueller Hinton broth (MHB) comprising 0.01% v/v acetic acid (Sigma Aldrich; St Louis, Mo.) and 0.2% w/v bovine serum albumin (Sigma Aldrich). Equal concentrations of bacteria were plated in wells of standard tissue culture microplates at a density of 0.5×10^8 CFU ml^−1 in MHB per well. Treatments were equivalent volumes (50 μl) of NK-lysin peptides in concentrations of 0 to 150 μg/ml, or no NK-lysin peptides for control wells. The treated plates were incubated at […] and optical densities were determined for each well at 0 minutes, 1, 2 and 3 hours and after an overnight incubation.

[2] = system: Klebsiella oxytoca (ATCC 49131); test: microbe, parasite or virus in culture
Experimental: as §1, §2

[3] = system: Klebsiella pneumoniae (patient isolate); test: microbe, parasite or virus in culture
Experimental: as §1, §2

[4] = system: Pseudomonas aeruginosa (ATCC 9027); test: microbe, parasite or virus in culture
Experimental: as §1, §2

[5] = system: Salmonella typhimurium (ATCC 14028); test: microbe, parasite or virus in culture; details: Salmonella enterica
Experimental: as §1, §2

[6] = system: Shigella sonnei (ATCC 25931); test: microbe, parasite or virus in culture
Experimental: as §1, §2

[7] = system: Streptococcus mutans (isolate); test: microbe, parasite or virus in culture
Experimental: as §1, §2

[8] = system: Streptococcus pyogenes (ATCC 19615); test: microbe, parasite or virus in culture
Experimental: as §1, §2

[9] = system: gram-positive and gram-negative bacteria; test: organism not typed
Text: The gram-positive bacterial strains utilized were Streptococcus pyogenes (ATCC 19615) and Streptococcus mutans (isolate obtained from a patient at King Abdul-Aziz hospital). The gram-negative bacterial strains used included Salmonella typhimurium (ATCC 14028), Escherichia coli (ATCC 11775), Pseudomonas aeruginosa (ATCC 9027), Klebsiella oxytoca (ATCC 49131), Shigella sonnei (ATCC 25931), and Klebsiella pneumoniae (patient isolate). Tryptic soy broth (TSB) was used to grow all bacterial strain overnight, after which the bacteria were washed using phosphate-buffered saline (PBS, NaCl 8 g/L, KCl 0.2 g/L, Na2HPO4 1.4 g/L, KH2PO4 0.24 g/L), and then diluted in the same buffer with 1/1000 TSB to an OD600 nm of 0.08-0.1 (1×10^8) colony-forming units (CFU)/ml, which was determined after performing retrospective plate counts on tryptic soy agar. Unless otherwise noted, the experiments in the following examples employed this inoculum preparation apart from when minimum inhibitory and bactericidal concentrations were determined, which employed cells in Muller Hinton broth. […]
Mueller Hinton broth (MHB) comprising 0.01% v/v acetic acid (Sigma Aldrich; St Louis, Mo.) and 0.2% w/v bovine serum albumin (Sigma Aldrich). […] The treated plates were incubated at […] and optical densities were determined for each well at 0 minutes, 1, 2 and 3 hours and after an overnight incubation. […]

[10] = Pseudomonas aeruginosa, ATCC9027
[11] = Streptococcus pyogenes, ATCC19615

Structure (SMILES): NC[C@H]1O[C@H](O[C@H]2[C@H](O)[C@@H](O[C@H]3O[C@H](CO)[C@@H](O)[C@H](N)[C@H]3O)[C@H](N)C[C@@H]2N)[C@H](O)[C@@H](O)[C@@H]1O [Kanamycin, kanamycin, reference compound]
- MBC [1]: 15.6 µg/mL (≈ 32.2 µM)
- MIC [1]: 15.62 ± 0.011 µg/mL (≈ 32.2 µM)
- MIC ([2]; K. oxytoca ATCC 49131): 31.25 ± 0.00 µg/mL (≈ 64.5 µM)
- MBC ([2]; Klebsiella oxytoca, ATCC49131): 31.2 µg/mL (≈ 64.5 µM)
- MIC ([2]; Klebsiella oxytoca, ATCC49131): 31.2 µg/mL (≈ 64.5 µM)
- MIC ([3]; K.Pneumonia (isolate)): 31.25 ± 0.00 µg/mL (≈ 64.5 µM)
- MBC ([3]; Klebsiella pneumoniae): 31.2 µg/mL (≈ 64.5 µM)
- MIC ([3]; Klebsiella pneumoniae): 31.2 µg/mL (≈ 64.5 µM)
- MIC ([4]; P.aeruginosa ATCC 9027): 62.5 ± 0.00 µg/mL (≈ 129 µM)
- MBC [4, 10]: 62.5 µg/mL (≈ 129 µM)
- MIC [4, 10]: 62.5 µg/mL (≈ 129 µM)
- MBC [5]: 62.5 µg/mL (≈ 129 µM)
- MIC [5]: 62.5 µg/mL (≈ 129 µM)
- MIC ([6]; Sh. sonnei ATCC 25931): 7.81 ± 0.026 µg/mL (≈ 16.1 µM)
- MBC ([6]; Shigella sonnei, ATCC25931): 7.81 ± 0.026 µg/mL (≈ 16.1 µM)
- MIC ([6]; Shigella sonnei, ATCC25931, Sh. sonnei ATCC 25931): 7.8 µg/mL (≈ 16.1 µM)
- MIC ([7]; St. mutans (isolate)): 62.5 ± 0.023 µg/mL (≈ 129 µM)
- MBC ([7]; Streptococcus mutans): 62.5 ± 0.23 µg/mL (≈ 129 µM)
- MIC ([7]; Streptococcus mutans): 62.5 µg/mL (≈ 129 µM)
- MIC ([8]; St. pyogenes ATCC 19615): 62.5 ± 0.00 µg/mL (≈ 129 µM)
- MBC [8, 11]: 62.5 µg/mL (≈ 129 µM)
- MIC [8, 11]: 62.5 µg/mL (≈ 129 µM)
- MIC [9]: 7.8 to 62.5 µg/mL (≈ 16.1 to 129 µM)
